Calls of active or inactive are those of the source.
Tests used:
[1] = target: T1, Tyrosine-protein phosphatase non-receptor type 22 (Homo sapiens, UniProt Q9Y2R2); assay type: functional;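 also: confirmatory dose-response retesting of primary uHTS hits against LYP; potency is for inhibition of phosphatase activity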
T1 sequence (Q9Y2R2 whole entry): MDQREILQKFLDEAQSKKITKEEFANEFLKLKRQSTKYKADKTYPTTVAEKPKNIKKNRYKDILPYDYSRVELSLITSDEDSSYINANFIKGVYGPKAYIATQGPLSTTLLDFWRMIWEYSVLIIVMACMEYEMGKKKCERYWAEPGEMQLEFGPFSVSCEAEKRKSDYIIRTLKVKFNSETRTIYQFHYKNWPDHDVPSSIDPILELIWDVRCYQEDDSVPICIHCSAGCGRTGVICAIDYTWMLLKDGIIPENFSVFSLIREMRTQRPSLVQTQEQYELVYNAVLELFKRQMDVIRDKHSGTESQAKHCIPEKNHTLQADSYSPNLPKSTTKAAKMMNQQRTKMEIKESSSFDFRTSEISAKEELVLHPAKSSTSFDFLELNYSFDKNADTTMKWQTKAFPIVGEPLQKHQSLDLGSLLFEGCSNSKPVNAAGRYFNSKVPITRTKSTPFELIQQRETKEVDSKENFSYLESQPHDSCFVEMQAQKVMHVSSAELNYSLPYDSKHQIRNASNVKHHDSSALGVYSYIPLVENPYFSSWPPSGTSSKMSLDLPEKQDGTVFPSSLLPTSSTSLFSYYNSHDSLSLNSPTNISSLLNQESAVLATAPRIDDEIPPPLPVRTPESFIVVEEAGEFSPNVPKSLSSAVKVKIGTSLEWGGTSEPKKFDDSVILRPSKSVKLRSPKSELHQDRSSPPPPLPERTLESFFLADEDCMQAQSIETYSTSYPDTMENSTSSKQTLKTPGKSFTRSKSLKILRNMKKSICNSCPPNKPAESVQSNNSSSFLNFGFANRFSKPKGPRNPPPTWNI

[2] = target: Transitional endoplasmic reticulum ATPase (Homo sapiens, UniProt P55072, C522A); assay: C522A mutant p97 ATPase inhibitors, dose response, counter-screen for p97 inhibitor project, biochemical, luminescence (AID 1544)
Sequence of Transitional endoplasmic reticulum ATPase (P55072 2-806 C522A limits assumed): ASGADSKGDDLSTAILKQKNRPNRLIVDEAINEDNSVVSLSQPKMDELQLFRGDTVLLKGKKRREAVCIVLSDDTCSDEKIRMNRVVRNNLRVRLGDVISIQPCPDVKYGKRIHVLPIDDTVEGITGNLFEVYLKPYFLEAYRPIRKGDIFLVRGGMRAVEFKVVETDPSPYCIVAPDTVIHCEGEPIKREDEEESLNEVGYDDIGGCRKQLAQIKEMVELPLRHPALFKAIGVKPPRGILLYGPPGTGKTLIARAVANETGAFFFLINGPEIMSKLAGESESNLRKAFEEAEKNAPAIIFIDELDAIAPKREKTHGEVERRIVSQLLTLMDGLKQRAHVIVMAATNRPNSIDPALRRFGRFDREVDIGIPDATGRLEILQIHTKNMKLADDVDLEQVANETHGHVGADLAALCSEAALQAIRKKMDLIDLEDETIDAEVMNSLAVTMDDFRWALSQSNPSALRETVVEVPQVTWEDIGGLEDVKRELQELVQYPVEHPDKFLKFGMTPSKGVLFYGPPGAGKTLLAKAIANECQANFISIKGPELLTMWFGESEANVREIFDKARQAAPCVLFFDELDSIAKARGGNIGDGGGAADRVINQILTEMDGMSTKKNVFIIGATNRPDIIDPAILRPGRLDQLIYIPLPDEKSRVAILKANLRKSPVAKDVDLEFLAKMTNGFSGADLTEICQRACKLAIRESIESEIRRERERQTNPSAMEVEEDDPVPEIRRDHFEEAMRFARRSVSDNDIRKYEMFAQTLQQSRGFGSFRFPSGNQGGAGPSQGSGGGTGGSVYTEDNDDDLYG

BJ = assay: BJ-TERT-LT-ST fibroblast viability loss – cell-based, RAS-independent, luminescence, dose response (AID 1935); assay type: functional; settings: Homo sapiens;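 also: BJ fibroblasts immortalized with TERT plus LT and ST oncogenes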
[3] = target: Photoreceptor-specific nuclear receptor (Homo sapiens, UniProt Q9Y5X4); assay type: functional;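 also: potency for compounds that break the NR2E3 corepressor complex and count as activators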
Sequence of Photoreceptor-specific nuclear receptor (Q9Y5X4 whole entry): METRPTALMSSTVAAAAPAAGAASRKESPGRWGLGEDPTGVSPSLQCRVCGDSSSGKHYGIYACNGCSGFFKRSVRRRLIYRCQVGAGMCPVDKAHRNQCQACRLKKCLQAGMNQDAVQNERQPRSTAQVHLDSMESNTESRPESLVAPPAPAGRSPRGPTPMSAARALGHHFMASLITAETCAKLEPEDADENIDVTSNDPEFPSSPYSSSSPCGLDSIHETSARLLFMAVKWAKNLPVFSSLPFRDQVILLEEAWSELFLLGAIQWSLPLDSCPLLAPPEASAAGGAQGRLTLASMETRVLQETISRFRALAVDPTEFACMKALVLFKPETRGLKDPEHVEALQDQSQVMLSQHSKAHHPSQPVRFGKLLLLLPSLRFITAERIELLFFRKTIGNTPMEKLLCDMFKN

[4] = target: 5-hydroxytryptamine receptor 5A (Homo sapiens, UniProt P47898); assay: Counterscreen for agonists of OPRM1-OPRD1 heterodimerization: luminescence-based cell-based high throughput dose response assay to identify agonists of 5-hydroxytryptamine (serotonin) 5A receptor (HTR5A). [Related pubchem assays (depositor defined):AID504326, AID504355, AID504692, AID504904, AID504905]; assay type: functional
Sequence of 5-hydroxytryptamine receptor 5A (P47898 whole entry): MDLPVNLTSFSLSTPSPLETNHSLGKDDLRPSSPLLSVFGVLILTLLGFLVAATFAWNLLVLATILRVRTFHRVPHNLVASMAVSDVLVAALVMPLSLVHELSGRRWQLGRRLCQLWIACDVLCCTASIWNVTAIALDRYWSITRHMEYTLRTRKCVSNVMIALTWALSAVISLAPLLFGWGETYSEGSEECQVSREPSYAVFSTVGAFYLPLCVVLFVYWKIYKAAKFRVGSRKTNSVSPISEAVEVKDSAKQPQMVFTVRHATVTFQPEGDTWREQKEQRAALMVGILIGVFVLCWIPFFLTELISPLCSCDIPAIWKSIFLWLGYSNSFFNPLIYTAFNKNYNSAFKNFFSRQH

[5] = target: T2, Sentrin-specific protease 7 (Homo sapiens, UniProt Q9BQF6); assay type: functional;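 also: Luminescence-based dose-response confirmation of ultra-high-throughput screening hits, measuring inhibition of SENP7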
T2 sequence (Q9BQF6 whole entry): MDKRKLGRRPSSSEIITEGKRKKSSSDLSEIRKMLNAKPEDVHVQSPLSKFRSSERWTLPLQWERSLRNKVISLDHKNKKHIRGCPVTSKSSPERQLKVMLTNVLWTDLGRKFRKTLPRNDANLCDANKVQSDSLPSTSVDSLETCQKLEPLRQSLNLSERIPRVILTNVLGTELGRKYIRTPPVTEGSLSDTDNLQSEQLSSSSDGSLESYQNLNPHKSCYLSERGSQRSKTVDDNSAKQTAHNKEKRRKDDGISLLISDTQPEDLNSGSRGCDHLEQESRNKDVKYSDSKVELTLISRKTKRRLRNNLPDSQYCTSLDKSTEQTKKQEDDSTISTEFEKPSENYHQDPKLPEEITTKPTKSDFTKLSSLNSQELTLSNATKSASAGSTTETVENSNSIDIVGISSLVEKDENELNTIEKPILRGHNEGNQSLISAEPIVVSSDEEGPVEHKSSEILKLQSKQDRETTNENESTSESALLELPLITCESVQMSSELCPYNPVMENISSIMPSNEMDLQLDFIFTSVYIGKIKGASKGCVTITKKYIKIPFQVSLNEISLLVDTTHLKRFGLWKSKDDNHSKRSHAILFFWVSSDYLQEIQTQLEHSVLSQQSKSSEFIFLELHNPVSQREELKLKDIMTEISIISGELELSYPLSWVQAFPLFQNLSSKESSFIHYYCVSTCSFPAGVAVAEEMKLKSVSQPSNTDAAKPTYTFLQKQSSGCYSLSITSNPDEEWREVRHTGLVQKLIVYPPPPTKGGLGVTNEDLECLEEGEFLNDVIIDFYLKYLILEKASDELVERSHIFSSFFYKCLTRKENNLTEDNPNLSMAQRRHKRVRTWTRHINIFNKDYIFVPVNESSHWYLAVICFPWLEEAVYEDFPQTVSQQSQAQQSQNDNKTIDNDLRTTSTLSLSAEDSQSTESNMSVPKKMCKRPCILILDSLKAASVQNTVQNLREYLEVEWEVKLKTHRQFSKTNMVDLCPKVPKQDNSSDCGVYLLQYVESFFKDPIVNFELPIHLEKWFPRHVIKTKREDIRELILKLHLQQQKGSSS

[6] = target: T3, Sentrin-specific protease 8 (Homo sapiens, UniProt Q96LD8); assay type: functional;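 also: luminescence read-out of SENP8 inhibition, dose-response confirmation following an ultra-high-throughput screen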
T3 sequence (Q96LD8 whole entry): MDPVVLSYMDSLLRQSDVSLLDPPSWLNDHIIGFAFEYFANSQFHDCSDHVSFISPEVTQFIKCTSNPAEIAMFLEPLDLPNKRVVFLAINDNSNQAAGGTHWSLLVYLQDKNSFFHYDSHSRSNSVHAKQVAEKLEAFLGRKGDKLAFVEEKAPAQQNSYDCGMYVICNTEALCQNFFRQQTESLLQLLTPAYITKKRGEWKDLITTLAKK

Compound: Cc1nc2c(=O)n(C)c(=O)nc-2n(C)n1
- IC50 [1]: < 1.24 µM (active)
- IC50 [2]: > 50 µM (not active)
- EC50 (BJ): 4.95 µM (inconclusive)
- IC50 [3]: > 39.8 µM (not active)

Compound: O=C1C=C(c2c(O)ccc3ccccc23)c2ccccc2C1=O
- EC50 [4]: > 92.4 µM (inactive)

Compound: Oc1nc(Nc2ccccc2Cl)cc2ccccc12
- IC50 [5]: 4.7 µM (active)
- IC50 [6]: 4.23 µM (active)
